Tests used:
[1] = refractive index (Na D-line) (dimensionless); xn = mol fraction of the nth substance listed; conditions: 101 kPa, Liquid
[2] = xn = mol fraction of the nth substance listed; conditions: 101 kPa, Liquid
[3] = refractive index (Na D-line) (dimensionless); conditions: 101.33 kPa, Liquid
[4] = 101 kPa, Liquid

CCOC(=O)CC(=O)OCC [diethyl 1,3-propanedioate] + C1COCCO1
Conditions	mass density, 298.15 K [kg/m3]	mass density, 303.15 K [kg/m3]	mass density, 308.15 K [kg/m3]	refractive index, 298.15 K	refractive index, 303.15 K	refractive index, 308.15 K	speed of sound, 298.15 K [m/s]	viscosity, 298.15 K [mPa·s]	viscosity, 303.15 K [mPa·s]	viscosity, 308.15 K [mPa·s]
[1], x2 = 0	–	–	–	1.4132	1.4108	1.4085	–	–	–	–
[1], x2 = 0.1005	–	–	–	1.4135	1.4113	1.409	–	–	–	–
[1], x2 = 0.1982	–	–	–	1.4139	1.412	1.4093	–	–	–	–
[1], x2 = 0.2959	–	–	–	1.4143	1.4123	1.4095	–	–	–	–
[1], x2 = 0.3959	–	–	–	1.4147	1.4127	1.4099	–	–	–	–
[1], x2 = 0.4959	–	–	–	1.415	1.4137	1.4103	–	–	–	–
[1], x2 = 0.5951	–	–	–	1.4161	1.4147	1.4113	–	–	–	–
[1], x2 = 0.6944	–	–	–	1.4171	1.4157	1.4122	–	–	–	–
[1], x2 = 0.796	–	–	–	1.4181	1.4167	1.4132	–	–	–	–
[1], x2 = 0.8977	–	–	–	1.4192	1.4231	1.4141	–	–	–	–
[2], x2 = 0	1049.6	1044.2	1038.8	–	–	–	1304	1.941	1.755	1.602
[2], x2 = 0.1005	1048.1	1042.8	1037.4	–	–	–	1308	1.858	1.698	1.537
[2], x2 = 0.1982	1046.6	1041.2	1035.8	–	–	–	1312	1.777	1.626	1.476
[2], x2 = 0.2959	1044.9	1039.6	1034.2	–	–	–	1316	1.7	1.556	1.413
[2], x2 = 0.3959	1043	1037.7	1032.3	–	–	–	1320	1.619	1.484	1.349
[2], x2 = 0.4959	1041	1035.6	1030.2	–	–	–	1324	1.542	1.415	1.287
[2], x2 = 0.5951	1038.8	1033.4	1028	–	–	–	1328	1.465	1.346	1.227
[2], x2 = 0.6944	1036.4	1030.9	1025.5	–	–	–	1332	1.391	1.28	1.17
[2], x2 = 0.796	1033.7	1028.2	1022.8	–	–	–	1337	1.316	1.214	1.111
[2], x2 = 0.8977	1030.9	1025.4	1019.9	–	–	–	1341	1.249	1.153	1.057

CCOC(C)=O [ethyl acetate]
Conditions	mass density, 298.15 K [kg/m3]	mass density, 303.15 K [kg/m3]	mass density, 308.15 K [kg/m3]	refractive index, 298.15 K	refractive index, 303.15 K	refractive index, 308.15 K	speed of sound, 298.15 K [m/s]	viscosity, 298.15 K [mPa·s]	viscosity, 303.15 K [mPa·s]	viscosity, 308.15 K [mPa·s]
[3]	–	–	–	1.3713	1.3673	1.3631	–	–	–	–
[4]	894.2	887.9	881.6	–	–	–	1155	0.438	0.414	0.392

CCOC(C)=O [ethyl acetate] + C1COCCO1
x2 = 0
Conditions	mass density, 298.15 K [kg/m3]	mass density, 303.15 K [kg/m3]	mass density, 308.15 K [kg/m3]	refractive index, 298.15 K	refractive index, 303.15 K	refractive index, 308.15 K	speed of sound, 298.15 K [m/s]	viscosity, 298.15 K [mPa·s]	viscosity, 303.15 K [mPa·s]	viscosity, 308.15 K [mPa·s]
[1]	–	–	–	1.3713	1.3673	1.3631	–	–	–	–
[2]	894.2	887.9	881.6	–	–	–	1155	0.438	0.414	0.392

ClC=C(Cl)Cl [trichloroethene]
Conditions	mass density, 298.15 K [kg/m3]	mass density, 303.15 K [kg/m3]	mass density, 308.15 K [kg/m3]	refractive index, 298.15 K	refractive index, 303.15 K	refractive index, 308.15 K	speed of sound, 298.15 K [m/s]	viscosity, 298.15 K [mPa·s]	viscosity, 303.15 K [mPa·s]	viscosity, 308.15 K [mPa·s]
[3]	–	–	–	1.476	1.4729	1.4698	–	–	–	–
[4]	1455.4	1447	1438.5	–	–	–	1027	0.573	0.547	0.521

ClC=C(Cl)Cl [trichloroethene] + C1COCCO1
Conditions	mass density, 298.15 K [kg/m3]	mass density, 303.15 K [kg/m3]	mass density, 308.15 K [kg/m3]	refractive index, 298.15 K	refractive index, 303.15 K	refractive index, 308.15 K	speed of sound, 298.15 K [m/s]	viscosity, 298.15 K [mPa·s]	viscosity, 303.15 K [mPa·s]	viscosity, 308.15 K [mPa·s]
[1], x2 = 0	–	–	–	1.476	1.4729	1.4698	–	–	–	–
[1], x2 = 0.1006	–	–	–	1.4704	1.4673	1.4643	–	–	–	–
[1], x2 = 0.201	–	–	–	1.4648	1.4618	1.4587	–	–	–	–
[1], x2 = 0.2983	–	–	–	1.4592	1.4562	1.4532	–	–	–	–
[1], x2 = 0.3995	–	–	–	1.4536	1.4507	1.4477	–	–	–	–
[1], x2 = 0.507	–	–	–	1.4476	1.4446	1.4417	–	–	–	–
[1], x2 = 0.5993	–	–	–	1.4426	1.4396	1.4366	–	–	–	–
[1], x2 = 0.6969	–	–	–	1.4373	1.4344	1.4315	–	–	–	–
[1], x2 = 0.802	–	–	–	1.4314	1.4285	1.4256	–	–	–	–
[1], x2 = 0.9003	–	–	–	1.426	1.4231	1.4202	–	–	–	–
[2], x2 = 0	1455.4	1447	1438.5	–	–	–	1027	0.573	0.547	0.521
[2], x2 = 0.1006	1412.7	1404.6	1396.4	–	–	–	1059	0.635	0.602	0.569
[2], x2 = 0.201	1370.1	1362.2	1354.2	–	–	–	1091	0.697	0.658	0.618
[2], x2 = 0.2983	1327.9	1320.3	1312.8	–	–	–	1122	0.758	0.712	0.665
[2], x2 = 0.3995	1284.4	1277.2	1270	–	–	–	1152	0.821	0.768	0.714
[2], x2 = 0.507	1238.6	1231.5	1224.5	–	–	–	1187	0.888	0.827	0.767
[2], x2 = 0.5993	1199.3	1192.5	1185.7	–	–	–	1215	0.945	0.878	0.812
[2], x2 = 0.6969	1158.5	1152.1	1145.6	–	–	–	1246	1.006	0.933	0.859
[2], x2 = 0.802	1114	1107.7	1101.5	–	–	–	1276	1.072	0.991	0.911
[2], x2 = 0.9003	1072.1	1066.2	1060	–	–	–	1307	1.133	1.046	0.959

From the NIST ThermoML archive (doi:10.1021/je049609w)
